Assay results from publication PMC2833271 (Neuropsychopharmacology : official publication of the …, 2009).
“Also recorded” adds a separate entry of the source. Where two headings read alike, the source gives them in different places.

How the values were obtained:
[1] = biological target: T1, brain MAO-A (Homo sapiens, UniProt P21397); experiment: PET imaging of [11C]clorgyline binding; type: in vivo
T1 sequence (P21397 1-527): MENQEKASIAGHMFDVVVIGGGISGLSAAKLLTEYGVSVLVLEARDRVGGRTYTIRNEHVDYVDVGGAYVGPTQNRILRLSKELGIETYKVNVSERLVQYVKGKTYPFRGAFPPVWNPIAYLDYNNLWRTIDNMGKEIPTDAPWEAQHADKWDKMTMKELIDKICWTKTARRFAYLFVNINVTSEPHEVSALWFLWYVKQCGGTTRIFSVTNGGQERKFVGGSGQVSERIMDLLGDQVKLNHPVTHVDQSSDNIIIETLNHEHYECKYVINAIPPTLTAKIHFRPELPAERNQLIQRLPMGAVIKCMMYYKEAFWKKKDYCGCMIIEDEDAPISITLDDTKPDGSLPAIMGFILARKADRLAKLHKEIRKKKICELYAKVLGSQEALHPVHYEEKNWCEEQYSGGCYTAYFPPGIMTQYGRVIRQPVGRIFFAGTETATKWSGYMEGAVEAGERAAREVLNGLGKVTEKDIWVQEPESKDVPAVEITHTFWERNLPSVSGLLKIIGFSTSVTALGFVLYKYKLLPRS

[2] = Plasma CX157 concentration and pharmacokinetics; type: in vivo, human; settings: for concentration at 2 h / concentration at 5 h / concentration at 12 h / concentration at 8 h: oral; for Plasma CX157: single subject value
[3] = biological target: T1, brain MAO-A; experiment: Emax model of brain MAO-A inhibition vs plasma CX157 concentration; type: in vivo
[4] = Adverse events in study subjects; type: in vivo, human; settings: 15 normal men, oral CX157 20-80 mg
[5] = system: MAO-A; settings: in human brain; ref data on file, CeNeRx Biopharma, Cary, NC; cited from earlier work
[6] = biological target: T1, brain MAO-A; settings: [11C]harmine PET; ref Bergström et al, 1997; cited from earlier work

O=S1(=O)c2ccc(F)cc2Oc2cc(OCC(F)(F)F)ccc21 [CX157, 3-fluoro-7-(2,2,2-trifluoroethoxy)phenoxathiin-10,10-dioxide]
inhibition of MAO-A ([1]; 40 mg CX157, first two subjects): ~ 60% | inhibition of [11C]clorgyline binding to brain MAO-A ([1]; 60 and 80 mg oral doses, 2 h after administration): 47–72% | recovery of brain MAO-A activity ([1]; 24 h post drug (single dose, 40 mg)): recovered completely; also recorded: Complete recovery to baseline values | inhibition at 40 mg ([1]; read-out: % MAO-A inhibition (inhibition of [11C]clorgyline binding, λk3), multi-dose 40 mg BID 7 days, n = 3, 12 h post dose): 23.1 ± 3.7% | inhibition at 40 mg ([1]; read-out: % MAO-A inhibition (inhibition of [11C]clorgyline binding, λk3), multi-dose 40 mg BID, 10 h, single subject value): 27.3% | % MAO-A inhibition (inhibition of [11C]clorgyline binding, λk3) ([1]; single dose 20 mg, n = 2, 2 h after CX157): 18.5 ± 10.6% | % MAO-A inhibition (inhibition of [11C]clorgyline binding, λk3) ([1]; single dose 20 mg, n = 2, 5 h after CX157): 18.8 ± 6.7% | % MAO-A inhibition (inhibition of [11C]clorgyline binding, λk3) ([1]; single dose 20 mg, n = 2, 12 h after CX157): 12.4 ± 10.8% | % MAO-A inhibition (inhibition of [11C]clorgyline binding, λk3) ([1]; single dose 40 mg, n = 3, 2 h after CX157): 54.7 ± 8.9% | % MAO-A inhibition (inhibition of [11C]clorgyline binding, λk3) ([1]; single dose 40 mg, n = 3, 12 h after CX157): 6.8 ± 14.6% | % MAO-A inhibition (inhibition of [11C]clorgyline binding, λk3) ([1]; single dose 40 mg, n = 3, 24 h after CX157): −1.8 ± 0.7% | % MAO-A inhibition (inhibition of [11C]clorgyline binding, λk3) ([1]; single dose 40 mg, 5 h after CX157, single subject value): 34.5% | % MAO-A inhibition (inhibition of [11C]clorgyline binding, λk3) ([1]; single dose 40 mg, 8 h after CX157, single subject value): 6.5% | % MAO-A inhibition (inhibition of [11C]clorgyline binding, λk3) ([1]; single dose 60 mg, n = 3, 5 h after CX157): 31.6 ± 27.4% | % MAO-A inhibition (inhibition of [11C]clorgyline binding, λk3) ([1]; single dose 60 mg, n = 3, 8 h after CX157): 23.4 ± 30.0% | % MAO-A inhibition (inhibition of [11C]clorgyline binding, λk3) ([1]; single dose 60 mg, n = 3, 12 h after CX157): 17.6 ± 17.9% | % MAO-A inhibition (inhibition of [11C]clorgyline binding, λk3) ([1]; single dose 80 mg, n = 4, 2 h after CX157): 72.3 ± 8.7% | % MAO-A inhibition (inhibition of [11C]clorgyline binding, λk3) ([1]; single dose 80 mg, n = 4, 5 h after CX157): 48.6 ± 12.1% | % MAO-A inhibition (inhibition of [11C]clorgyline binding, λk3) ([1]; single dose 80 mg, n = 4, 8 h after CX157): 30.4 ± 8.9% | % MAO-A inhibition (inhibition of [11C]clorgyline binding, λk3) ([1]; single dose 80 mg, 12 h after CX157, single subject value): 43.1% | peak inhibition of [11C]clorgyline binding ([1]; single doses, all dose groups except 20 mg, 2-h time point): 47–72% | concentration at 2 h ([2]; male, human, plasma, 20 mg, Average plasma CX157, single dose 20 mg, n = 2, 2 h): 18.5 ± 3.3 ng/mL | concentration at 5 h ([2]; male, human, plasma, 20 mg, Average plasma CX157, single dose 20 mg, n = 2, 5 h): 18.8 ± 1.1 ng/mL | concentration at 12 h ([2]; male, human, plasma, 20 mg, Average plasma CX157, single dose 20 mg, n = 2, 12 h): 12.4 ± 0.7 ng/mL | concentration at 2 h ([2]; male, human, plasma, 40 mg, Average plasma CX157, multi-dose 40 mg BID, n = 3, 2 h): 48.3 ± 11.3 ng/mL | concentration at 5 h ([2]; male, human, plasma, 40 mg, Average plasma CX157, multi-dose 40 mg BID, n = 3, 5 h): 34.1 ± 5.8 ng/mL | concentration at 8 h ([2]; male, human, plasma, 40 mg, Average plasma CX157, multi-dose 40 mg BID, n = 3, 8 h): 32.2 ± 4.4 ng/mL | concentration at 12 h ([2]; male, human, plasma, 40 mg, Average plasma CX157, multi-dose 40 mg BID, n = 3, 12 h): 23.1 ± 1.4 ng/mL | concentration at 2 h ([2]; male, human, plasma, 40 mg, Average plasma CX157, single dose 40 mg, n = 3, 2 h): 54.7 ± 18.5 ng/mL | concentration at 12 h ([2]; male, human, plasma, 40 mg, Average plasma CX157, single dose 40 mg, n = 3, 12 h): 6.8 ± 1.5 ng/mL | concentration at 2 h ([2]; male, human, plasma, 60 mg, Average plasma CX157, single dose 60 mg, n = 3, 2 h): 46.8 ± 84.4 ng/mL | concentration at 5 h ([2]; male, human, plasma, 60 mg, Average plasma CX157, single dose 60 mg, n = 3, 5 h): 31.6 ± 37.4 ng/mL | concentration at 8 h ([2]; male, human, plasma, 60 mg, Average plasma CX157, single dose 60 mg, n = 3, 8 h): 23.4 ± 8 ng/mL | concentration at 12 h ([2]; male, human, plasma, 60 mg, Average plasma CX157, single dose 60 mg, n = 3, 12 h): 17.6 ± 6.6 ng/mL | concentration at 2 h ([2]; male, human, plasma, 80 mg, Average plasma CX157, single dose 80 mg, n = 4, 2 h): 72.3 ± 58.8 ng/mL | concentration at 5 h ([2]; male, human, plasma, 80 mg, Average plasma CX157, single dose 80 mg, n = 4, 5 h): 48.6 ± 25 ng/mL | concentration at 8 h ([2]; male, human, plasma, 80 mg, Average plasma CX157, single dose 80 mg, n = 4, 8 h): 30.4 ± 5.2 ng/mL | half-life ([2]; male, human, plasma, po): 6 ± 3.4 h | Plasma CX157 range ([2]; multi-dose 40 mg BID, n = 3, 2 h): 24.5 to 45 ng/mL | Plasma CX157 range ([2]; multi-dose 40 mg BID, n = 3, 5 h): 13.1 to 24.7 ng/mL | Plasma CX157 range ([2]; multi-dose 40 mg BID, n = 3, 8 h): 10.8 to 19.5 ng/mL | Plasma CX157 range ([2]; multi-dose 40 mg BID, n = 3, 12 h): 9 to 11 ng/mL | Plasma CX157 ([2]; multi-dose 40 mg BID, 10 h): 6.9 ng/mL | Plasma CX157 range ([2]; single dose 20 mg, n = 2, 2 h): 3.8 to 8.1 ng/mL | Plasma CX157 range ([2]; single dose 20 mg, n = 2, 5 h): 1.9 to 3.4 ng/mL | Plasma CX157 range ([2]; single dose 20 mg, n = 2, 12 h): 0.6 to 1.6 ng/mL | Plasma CX157 range ([2]; single dose 40 mg, n = 3, 2 h): 18.4 to 55.1 ng/mL | Plasma CX157 range ([2]; single dose 40 mg, n = 3, 12 h): 0.9 to 3.9 ng/mL | Average plasma CX157 ([2]; single dose 40 mg, n = 3, 24 h): 2.8 ± 1.3 ng/mL | Plasma CX157 range ([2]; single dose 40 mg, n = 3, 24 h): 1.8 to 3.7 ng/mL | Plasma CX157 ([2]; single dose 40 mg, 5 h): 8.4 ng/mL | Plasma CX157 ([2]; single dose 40 mg, 8 h): 1.8 ng/mL | Plasma CX157 range ([2]; single dose 60 mg, n = 3, 2 h): 7.6 to 158 ng/mL | Plasma CX157 range ([2]; single dose 60 mg, n = 3, 5 h): 3.6 to 67.3 ng/mL | Plasma CX157 range ([2]; single dose 60 mg, n = 3, 8 h): 3.4 to 14.7 ng/mL | Plasma CX157 range ([2]; single dose 60 mg, n = 3, 12 h): 1.8 to 11.1 ng/mL | Plasma CX157 range ([2]; single dose 80 mg, n = 4, 2 h): 70.7 to 183 ng/mL | Plasma CX157 range ([2]; single dose 80 mg, n = 4, 5 h): 13.5 to 70.2 ng/mL | Plasma CX157 range ([2]; single dose 80 mg, n = 4, 8 h): 5.7 to 15.4 ng/mL | Plasma CX157 ([2]; single dose 80 mg, 12 h): 16.6 ng/mL | EC50 [3]: 0.0554 µM | n (exponent of sigmoid Emax model) ([3]; Emax model fit, all subjects, doses and time points): 1.0 | Emax ([3]; read-out: Emax (maximum inhibiting response)): 80.7% | overall incidence of AEs [4]: 13.3% | serious adverse events or deaths [4]: No serious adverse events (AEs) or deaths occurred | MAO-A inhibiting activity [5]: 3.3 nM

CCS(=O)(=O)Oc1ccc2c(C)c(C)c(=O)oc2c1 [esuprone]
correlation between plasma drug levels and brain MAO-A inhibition [6]: no correlation observed
